In patent publication US20100119599A1 (ARCHER PHARMACEUTICALS, INC., priority 2006, published 2010):

Tests used:
Aβ1-40 = assay: Measurement of Aβ1-40 in culture medium of 7W WT APP751 CHO cells by ELISA; assay type: cell-based, Chinese hamster; details: for activity at 5 µM: Cricetulus griseus, Table 1, 5 μM test compound, CHO cells stably transfected with human APP751, culture medium, ELISA, control DMSO, 0 = no detectable amount
Aβ1-42 = assay: Measurement of Aβ1-42 in culture medium of 7W WT APP751 CHO cells by ELISA; assay type: cell-based, Chinese hamster; details: for activity at 5 µM: Cricetulus griseus, Table 1, 5 μM test compound, CHO cells stably transfected with human APP751, culture medium, ELISA, control DMSO, 0 = no detectable amount, read-out: Aβ1-42 (% of control)
[1] = CHO cells that overexpress APP751, zero = below the detection limit of the assay
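Also: 5 µM test compound but RI-coded compounds at 10 µM for 24 hours.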

CCSCCOC(=O)C1=C(C)NC2=C(C(=O)CC(c3ccccc3)C2)C1c1ccc(Br)cc1 (stereo not drawn) [ST017201, 2-ethylthioethyl 4-(4-bromophenyl)-2-methyl-5-oxo-7-phenyl-1,4,6,7,8-pentahydroquinoline-3-carboxylate]
activity at 5 µM (Aβ1-40): 57.5% | activity at 5 µM (Aβ1-42): 85.2%

COc1ccc(COC(=O)C2=C(C)NC3=C(C(=O)CC(C)(C)C3)C2c2cc3c(cc2[NH+]([O-])O)OCO3)cc1 (stereo not drawn) [ST017054, (4-methoxyphenyl)methyl 2,7,7-trimethyl-4-(6-nitro(2H-benzo[d]1,3-dioxolan-5-yl))-5-oxo-1,4,6,7,8-pentahydroquinoline-3-carboxylate]
activity at 5 µM (Aβ1-40): 46.5% | activity at 5 µM (Aβ1-42): 9.54%

COC(=O)C1=C(C)NC2=C(C(=O)CC(C)(C)C2)C1c1ccc(OCc2cccc(Cl)c2)c(OC)c1 (stereo not drawn) [ST028592, methyl 4-{4-[(3-chlorophenyl)methoxy]-3-methoxyphenyl}-2,7,7-trimethyl-5-oxo-1,4,6,7,8-pentahydroquinoline-3-carboxylate]
activity at 5 µM (Aβ1-40): 28.3% | activity at 5 µM (Aβ1-42): 97.1%

COC(=O)C1=C(C)NC2=C(C(=O)CC(C)(C)C2)C1c1ccc(OCc2ccc(Cl)cc2)c(OC)c1 (stereo not drawn) [ST028595, methyl 4-{4-[(4-chlorophenyl)methoxy]-3-methoxyphenyl}-2,7,7-trimethyl-5-oxo-1,4,6,7,8-pentahydroquinoline-3-carboxylate]
activity at 5 µM (Aβ1-40): 34.4% | activity at 5 µM (Aβ1-42): 98.9%

CCCOC(=O)C1=C(C)NC2=C(C(=O)CCC2)C1c1cccnc1 (stereo not drawn) [ST017250, propyl 2-methyl-5-oxo-4-(3-pyridyl)-1,4,6,7,8-pentahydroquinoline-3-carboxylate]
activity at 5 µM (Aβ1-40): 28.5% | activity at 5 µM (Aβ1-42): 49.2%

CCN(CC)c1ccc(C2C(C(=O)OCc3ccccc3)=C(C)NC3=C2C(=O)CC(C)(C)C3)cc1 (stereo not drawn) [ST013049, phenylmethyl 4-[4-(diethylamino)phenyl]-2,7,7-trimethyl-5-oxo-1,4,6,7,8-pentahydroquinoline-3-carboxylate]
activity at 5 µM (Aβ1-40): 27.8% | activity at 5 µM (Aβ1-42): 94.1%

CCc1ccc(C2C(C(=O)OC(C)CC)=C(C)NC3=C2C(=O)CC(c2ccc(OC)cc2)C3)cc1 (stereo not drawn) [ST017092, methylpropyl 4-(4-ethylphenyl)-7-(4-methoxyphenyl)-2-methyl-5-oxo-1,4,6,7,8-pentahydroquinoline-3-carboxylate]
activity at 5 µM (Aβ1-40): 41.3% | activity at 5 µM (Aβ1-42): 30.9%

CCOC(=O)C1=C(C)NC2=C(C(=O)CCC2)C1c1ccc(N(C)C)cc1 (stereo not drawn) [ST013066, ethyl 4-[4-(dimethylamino)phenyl]-2-methyl-5-oxo-1,4,6,7,8-pentahydroquinoline-3-carboxylate]
activity at 5 µM (Aβ1-40): 68.4% | activity at 5 µM (Aβ1-42): 96.7%

COC(=O)C1=C(C)NC(C)=C(C(=O)OC)C1c1ccc(Br)cc1 [ST208633, methyl 4-(4-bromophenyl)-5-(methoxycarbonyl)-2,6-dimethyl-1,4-dihydropyridine-3-carboxylate]
Aβ1-40 (% of control) (Aβ1-40; [1]): 9.12 % of control | Aβ1-42 (% of control) (Aβ1-42; [1]): 0 % of control

CC1=C(C(=O)OCC(C)C)C(c2cc([N+](=O)[O-])ccc2Cl)C2=C(CCCC2=O)N1 (stereo not drawn) [ST052351, 2-methylpropyl 4-(2-chloro-5-nitrophenyl)-2-methyl-5-oxo-1,4,6,7,8-pentahydroquinoline-3-carboxylate]
activity at 5 µM (Aβ1-40): 19.3% | activity at 5 µM (Aβ1-42): 20.3%

CCCCCOC(=O)C1=C(C)NC2=C(C(=O)CC(C)(C)C2)C1c1cc2c(cc1Br)OCO2 (stereo not drawn) [ST216568, pentyl 4-(6-bromo(2H-benzo[d]1,3-dioxolan-5-yl))-2,7,7-trimethyl-5-oxo-1,4,6,7,8-pentahydroquinoline-3-carboxylate]
activity at 5 µM (Aβ1-40): 14.8% | activity at 5 µM (Aβ1-42): 24.7%

CCc1ccc(C2C(C(=O)OC3CCCC3)=C(C)NC3=C2C(=O)CC(C)(C)C3)cc1 (stereo not drawn) [ST013227, cyclopentyl 4-(4-ethylphenyl)-2,7,7-trimethyl-5-oxo-1,4,6,7,8-pentahydroquinoline-3-carboxylate]
activity at 5 µM (Aβ1-40): 0% | activity at 5 µM (Aβ1-42): 92.7%
